Values after ≈ are worked out from the molar mass of the structure shown. Where two headings read alike, the source gives them in different places.
Legend:
[1] = tested on: S. aureus Newbould (normal strain); test: MIC, microdilution in BHI 48 h; type: cell-based, Staphylococcus aureus; details: Newbould, normal strain
S. aureus MRSA COL = test: MIC, microdilution in CAMHB 24 h; type: cell-based, Staphylococcus aureus; details: MRSA COL
S. aureus Sa220c = test: MIC, microdilution in CAMHB 24 h; type: cell-based, Staphylococcus aureus; details: Sa220c
S. hominis ssp008c = test: MIC, microdilution, with or without tomatidine; details: for MIC: Staphylococcus hominis, SSP008C
normal strain CF07-L = test: Broth growth with gentamicin or tomatidine, visually evaluated (FIG. 5A); details: gentamicin at 4 μg/ml or tomatidine at 0.12 μg/ml alone, 48 h
[2] = tested on: S. aureus CF07-L (normal strain); test: MIC, microdilution in BHI 48 h (Examples 1, 3); type: cell-based, Staphylococcus aureus
[3] = tested on: S. epidermidis ATCC 35984; test: MIC, microdilution, with or without tomatidine; details: for MIC: Staphylococcus epidermidis
S. haemolyticus sh032 = test: MIC, microdilution, with or without tomatidine; details: for MIC: Staphylococcus haemolyticus
[4] = tested on: S. aureus CF1A-L (normal strain); test: MIC, microdilution in BHI 48 h; type: cell-based, Staphylococcus aureus; details: CF1A-L, normal strain
S. hominis sho23 = test: MIC, microdilution, with or without tomatidine; details: for MIC: Staphylococcus hominis
S. haemolyticus sh022 = test: MIC, microdilution, with or without tomatidine; details: for MIC: Staphylococcus haemolyticus
S. aureus N315 = test: microbe, parasite or virus in culture; type: cell-based, Staphylococcus aureus
[5] = tested on: S. epidermidis ATCC 12228; test: MIC, microdilution, with or without tomatidine; details: for MIC: Staphylococcus epidermidis
[6] = tested on: all tested S. aureus strains; test: Average potentiation of aminoglycoside MIC by tomatidine (FIGS. 6, 7); type: cell-based, Staphylococcus aureus; details: tomatidine at 8 μg/ml
S. aureus ATCC 29213 = test: MIC, microdilution in BHI 48 h (Examples 1, 3); type: cell-based, Staphylococcus aureus
S. aureus CF1A-L = test: MIC, microdilution in CAMHB 24 h; type: cell-based, Staphylococcus aureus; details: CF1A-L
[7] = tested on: S. aureus SCV NewbouldΔhemB; test: MIC, microdilution in BHI 48 h; type: cell-based, Staphylococcus aureus; details: NewbouldΔhemB, SCV
S. aureus CF9A-L = test: MIC, microdilution in CAMHB 24 h; type: cell-based, Staphylococcus aureus; details: CF9A-L
S. aureus SCV CF07-S = test: MIC, microdilution in BHI 48 h (Examples 1, 3); type: cell-based, Staphylococcus aureus
S. aureus SCV CF1D-S = test: MIC, microdilution in BHI 48 h; type: cell-based, Staphylococcus aureus; details: CF1D-S, SCV
[8] = S. hominis ssp008c, 8 μg/ml of tomatidine
[9] = S. epidermidis ATCC 35984, 8 μg/ml of tomatidine
[10] = S. haemolyticus sh032, 8 μg/ml of tomatidine
[11] = S. hominis sho23, 8 μg/ml of tomatidine
[12] = S. haemolyticus sh022, 8 μg/ml of tomatidine
[13] = S. epidermidis ATCC 12228, 8 μg/ml of tomatidine
[14] = Staphylococcus aureus, 8 μg/ml of tomatidine, read-out: MIC +TO
[15] = Staphylococcus aureus, absence of tomatidine, read-out: MIC −TO

Molecule: gentamicin
- MIC [1]: 0.5-1^ μg/ml
- Fold (−TO/+TO) (S. aureus MRSA COL; 8 μg/ml of tomatidine): 8-16 fold
- MIC +TO (S. aureus MRSA COL; 8 μg/ml of tomatidine): 0.06 µg/mL
- MIC (S. aureus MRSA COL; Human (SSTI)): 0.5 to 1 µg/mL
- MIC −TO (S. aureus MRSA COL; absence of tomatidine): 0.5 to 1 µg/mL
- Fold (−TO/+TO) (S. aureus Sa220c; 8 μg/ml of tomatidine): 4-8 fold
- MIC +TO (S. aureus Sa220c; 8 μg/ml of tomatidine): 0.06 to 0.12 µg/mL
- MIC (S. aureus Sa220c; Human (SSTI), MRSA): 0.5 µg/mL
- MIC −TO (S. aureus Sa220c; absence of tomatidine): 0.5 µg/mL
- Fold (−TO/+TO) (S. hominis ssp008c; [8]): 4 fold
- MIC +TO (S. hominis ssp008c; [8]): 2 µg/mL
- MIC −TO (S. hominis ssp008c; S. hominis ssp008c, absence of tomatidine): 8 µg/mL
- growth, visually evaluated (normal strain CF07-L): inhibits the growth
- MIC ([2]; CF07-L + HQNO at 20 μg/ml): 4 µg/mL
- MIC ([2]; CF07-L, normal strain): 1 to 2 µg/mL
- MIC ([2]; CF07-L, without HQNO): 1 to 2 µg/mL
- Fold (−TO/+TO) [3, 9]: 4 fold
- MIC +TO [3, 9]: 8 µg/mL
- MIC −TO ([3]; S. epidermidis ATCC 35984, absence of tomatidine): 32 µg/mL
- Fold (−TO/+TO) (S. haemolyticus sh032; [10]): 8 fold
- MIC +TO (S. haemolyticus sh032; [10]): 8 µg/mL
- MIC −TO (S. haemolyticus sh032; S. haemolyticus sh032, absence of tomatidine): 64 µg/mL
- MIC [4]: 1 to 2 µg/mL
- Fold (−TO/+TO) (S. hominis sho23; [11]): 2 fold
- MIC +TO (S. hominis sho23; [11]): 0.06 µg/mL
- MIC −TO (S. hominis sho23; S. hominis sho23, absence of tomatidine): 0.12 µg/mL
- Fold (−TO/+TO) (S. haemolyticus sh022; [12]): 4 fold
- MIC +TO (S. haemolyticus sh022; [12]): 4 µg/mL
- MIC −TO (S. haemolyticus sh022; S. haemolyticus sh022, absence of tomatidine): 16 µg/mL
- MIC +TO (S. aureus N315; N315, ant(4′)-Ia, 8 μg/ml of tomatidine): 0.12 µg/mL
- MIC −TO (S. aureus N315; N315, ant(4′)-Ia, absence of tomatidine): 1 µg/mL
- Fold (−TO/+TO) (S. aureus N315; N315, 8 μg/ml of tomatidine): 8 fold
- MIC (S. aureus N315; N315, Human (HA), MRSA): 1 µg/mL
- Fold (−TO/+TO) [5, 13]: 2 fold
- MIC +TO [5, 13]: 0.06 µg/mL
- MIC −TO ([5]; S. epidermidis ATCC 12228, absence of tomatidine): 0.12 µg/mL
- average increase of antibacterial activity [6]: 8±3 fold
- MIC (S. aureus ATCC 29213; ATCC 29213 + HQNO at 20 μg/ml): 4 µg/mL
- MIC (S. aureus ATCC 29213; ATCC 29213, without HQNO): 1 µg/mL
- MIC in presence of CCCP (S. aureus ATCC 29213; ATCC 29213, 1 μg/ml CCCP): 4 to 8 µg/mL
- MIC (S. aureus ATCC 29213; ATCC 29213 in BHI): 1 µg/mL
- MIC (S. aureus ATCC 29213; ATCC 29213 in MHBCA): 0.5-1^ μg/ml
- Fold (−TO/+TO) (S. aureus CF1A-L; 8 μg/ml of tomatidine): 4-8 fold
- MIC +TO (S. aureus CF1A-L; 8 μg/ml of tomatidine): 0.12 µg/mL
- MIC (S. aureus CF1A-L; Human (CF lungs)): 0.5 to 1 µg/mL
- MIC −TO (S. aureus CF1A-L; absence of tomatidine): 0.5 to 1 µg/mL
- MIC [7]: 4 to 8 µg/mL
- MIC +TO (S. aureus CF9A-L; ant(4′)-Ia, 8 μg/ml of tomatidine): 0.06 to 0.12 µg/mL
- MIC −TO (S. aureus CF9A-L; ant(4′)-Ia, absence of tomatidine): 0.5 to 1 µg/mL
- Fold (−TO/+TO) (S. aureus CF9A-L; 8 μg/ml of tomatidine): 4-8 fold
- MIC (S. aureus CF9A-L; Human (CF lungs), MRSA): 0.5 to 1 µg/mL
- MIC (S. aureus SCV CF07-S; CF07-S + HQNO at 20 μg/ml): 4 to 8 µg/mL
- MIC (S. aureus SCV CF07-S; CF07-S, SCV): 8 µg/mL
- MIC (S. aureus SCV CF07-S; CF07-S, without HQNO): 8 µg/mL
- MIC (S. aureus SCV CF1D-S): 8 µg/mL

Molecule: NC[C@H]1O[C@H](O[C@H]2[C@H](O)[C@@H](O[C@H]3O[C@H](CO)[C@@H](O)[C@H](N)[C@H]3O)[C@H](N)C[C@@H]2N)[C@H](N)C[C@@H]1O [Tobramycin, tobramycin]
- Fold (−TO/+TO) (S. aureus MRSA COL; 8 μg/ml of tomatidine): 8-16 fold
- MIC (S. aureus MRSA COL; [14]): 0.06 µg/mL (≈ 0.128 µM)
- MIC (S. aureus MRSA COL; Staphylococcus aureus, Human (SSTI), read-out: MIC): 0.5 to 1 µg/mL (≈ 1.07 to 2.14 µM)
- MIC (S. aureus MRSA COL; [15]): 0.5 to 1 µg/mL (≈ 1.07 to 2.14 µM)
- Fold (−TO/+TO) (S. aureus Sa220c; 8 μg/ml of tomatidine): 4-16 fold
- MIC (S. aureus Sa220c; [14]): 0.06 to 0.12 µg/mL (≈ 0.128 to 0.257 µM)
- MIC (S. aureus Sa220c; Staphylococcus aureus, Human (SSTI), MRSA, read-out: MIC): 0.5 to 1 µg/mL (≈ 1.07 to 2.14 µM)
- MIC (S. aureus Sa220c; [15]): 0.5 to 1 µg/mL (≈ 1.07 to 2.14 µM)
- Fold (−TO/+TO) (S. hominis ssp008c; [8]): 4 fold
- MIC (S. hominis ssp008c; read-out: MIC +TO): 8 µg/mL (≈ 17.1 µM)
- MIC (S. hominis ssp008c; read-out: MIC −TO): 32 µg/mL (≈ 68.4 µM)
- Fold (−TO/+TO) [3, 9]: 8 fold
- MIC ([3]; ATCC35984, read-out: MIC +TO): 2 µg/mL (≈ 4.28 µM)
- MIC ([3]; ATCC35984, read-out: MIC −TO): 16 µg/mL (≈ 34.2 µM)
- Fold (−TO/+TO) (S. haemolyticus sh032; [10]): 16 fold
- MIC (S. haemolyticus sh032; SH032, read-out: MIC +TO): 2 µg/mL (≈ 4.28 µM)
- MIC (S. haemolyticus sh032; SH032, read-out: MIC −TO): 32 µg/mL (≈ 68.4 µM)
- Fold (−TO/+TO) (S. hominis sho23; [11]): 4 fold
- MIC (S. hominis sho23; SHO23, read-out: MIC +TO): 1 µg/mL (≈ 2.14 µM)
- MIC (S. hominis sho23; SHO23, read-out: MIC −TO): 4 µg/mL (≈ 8.56 µM)
- Fold (−TO/+TO) (S. haemolyticus sh022; [12]): 8 fold
- MIC (S. haemolyticus sh022; SH022, read-out: MIC +TO): 4 µg/mL (≈ 8.56 µM)
- MIC (S. haemolyticus sh022; SH022, read-out: MIC −TO): 32 µg/mL (≈ 68.4 µM)
- Fold (−TO/+TO) (S. aureus N315; N315, 8 μg/ml of tomatidine): 2-4 fold
- MIC (S. aureus N315; Staphylococcus aureus, MRSA): 512 µg/mL (≈ 1100 µM)
- MIC (S. aureus N315; Staphylococcus aureus, N315, read-out: MIC +TO): 128 to 256 µg/mL (≈ 274 to 548 µM)
- MIC (S. aureus N315; Staphylococcus aureus, N315, read-out: MIC −TO): 512 µg/mL (≈ 1100 µM)
- Fold (−TO/+TO) [5, 13]: 2 fold
- MIC ([5]; ATCC12228, read-out: MIC +TO): 0.06 µg/mL (≈ 0.128 µM)
- MIC ([5]; ATCC12228, read-out: MIC −TO): 0.12 µg/mL (≈ 0.257 µM)
- average increase of antibacterial activity [6]: 8±3 fold
- Fold (−TO/+TO) (S. aureus CF1A-L; 8 μg/ml of tomatidine): 4-16 fold
- MIC (S. aureus CF1A-L; Staphylococcus aureus, CF1AL, 8 μg/ml of tomatidine, read-out: MIC +TO): 0.06 to 0.25 µg/mL (≈ 0.128 to 0.535 µM)
- MIC (S. aureus CF1A-L; Staphylococcus aureus, CF1AL, Human (CF lungs), read-out: MIC): 1 µg/mL (≈ 2.14 µM)
- MIC (S. aureus CF1A-L; Staphylococcus aureus, CF1AL, absence of tomatidine, read-out: MIC −TO): 1 µg/mL (≈ 2.14 µM)
- Fold (−TO/+TO) (S. aureus CF9A-L; 8 μg/ml of tomatidine): 4-8 fold
- MIC (S. aureus CF9A-L; Staphylococcus aureus, CF9AL, ant(4′)-Ia, 8 μg/ml of tomatidine, read-out: MIC +TO): 64 to 256 µg/mL (≈ 137 to 548 µM)
- MIC (S. aureus CF9A-L; Staphylococcus aureus, CF9AL, ant(4′)-Ia, absence of tomatidine, read-out: MIC −TO): 512 to 1020 µg/mL (≈ 1100 to 2190 µM)
- MIC (S. aureus CF9A-L; Staphylococcus aureus, Human (CF lungs), MRSA, read-out: MIC): 512 to 1020 µg/mL (≈ 1100 to 2190 µM)

Source: patent US9457033B2, “Steroid alkaloids and uses thereof as antimicrobial agents against electron transport-deficient microbes and as potentiators for antimicrobial agents against pathogenic bacteria” (priority 2011, dated 2016)
